Assay results from patent US6762174B1 (priority 1998, dated 2004).
Like-named read-outs stand apart in the source and are kept apart here.

What was measured:
[1] = DEX.10 mg IP
[2] = test system: MT-1 breast cancer xenograft; details: for Died of toxic effects: 8 mice
B16 melanoma = format: in vivo, female BDF1 mice; details: for Statistically Significant Effect on Reducing Tumor Volume: cp alone
MOPC-315 myeloma [3] = assay: MOPC-315 Myeloma study #5: Melphalan + β-alethine ip day 9 (1 × 10^6 tumor cells); details: for Tumor Size: 1.25 mg/kg mp; for Animals Surviving: mp 1.25 mg/kg
MOPC-315 myeloma [4] = assay: MOPC-315 Myeloma study #4: Melphalan + β-alethine ip day 10 (1 × 10^6 tumor cells); details: for Animals Surviving: mp 1.25 mg/kg; for Mean Tumor Size: mp alone
MOPC-315 myeloma [5] = assay: MOPC-315 Myeloma study #6: β-alethine ip day 9, 10 or 11, mp ip day 10 (1 × 10^6 tumor cells); details: for Animals Surviving: mp 1.25 mg/kg d 10 alone (20 mice)
[6] = mp on day 10, BT none, 20 in group

With `C[C@@H]1C[C@H]2[C@@H]3CCC4=CC(=O)C=C[C@]4(C)[C@@]3(F)[C@@H](O)C[C@]2(C)[C@@]1(O)C(=O)CO` [DEX., dexamethasone] the “Percent Body Weight Loss From Day 0” value ([1]; day 1) was 3.0%, the “Percent Body Weight Loss From Day 0” value ([1]; day 5) was 4.6% and the “Percent Body Weight Loss From Day 0” value ([1]; day 6) was 2.8%. For the same molecule, the “Percent Body Weight Loss From Day 0” value ([1]; day 7) was 3.4%, the “Percent Body Weight Loss From Day 0” value ([1]; day 8) was 2.4% and the “Percent Body Weight Loss From Day 0” value ([1]; day 9) was 3.6%. The “Percent Body Weight Loss From Day 0” value ([1]; day 10) was 2.8%, the “Percent Body Weight Loss From Day 0” value ([1]; day 11) was 1.3% and the “Percent Body Weight Loss From Day 0” value ([1]; day 12) was 3.7%. The “Percent Body Weight Loss From Day 0” value ([1]; day 13) was 2.1% and the “Percent Body Weight Loss From Day 0” value ([1]; day 21) was 0.1%.

For `O=P1(N(CCCl)CCCl)NCCCO1` (stereo not shown) [cp, cyclophosphamide], the “Median Relative Tumor Volume” value ([2]; 100 mg/kg cp, day 42) was 1, the “Median Relative Tumor Volume” value ([2]; 100 mg/kg cp, day 46) was 1.37 and the “Median Relative Tumor Volume” value ([2]; 100 mg/kg cp, day 49) was 1.54. For the same molecule, the “Median Relative Tumor Volume” value ([2]; 100 mg/kg cp, day 53) was 1.50, the “Median Relative Tumor Volume” value ([2]; 100 mg/kg cp, day 59) was 1.85 and the “Median Relative Tumor Volume” value ([2]; 200 mg/kg cp, day 42) was 1. The “Median Relative Tumor Volume” value ([2]; 200 mg/kg cp, day 46) was 1.15, the “Median Relative Tumor Volume” value ([2]; 200 mg/kg cp, day 49) was 1.11 and the “Median Relative Tumor Volume” value ([2]; 200 mg/kg cp, day 53) was 1.21. The “Median Relative Tumor Volume” value ([2]; 200 mg/kg cp, day 59) was 1.15, the “Median Relative Tumor Volume” value ([2]; 300 mg/kg cp, day 42) was 1 and the “Median Relative Tumor Volume” value ([2]; 300 mg/kg cp, day 46) was 1.34. For the same molecule, the “Median Relative Tumor Volume” value ([2]; 300 mg/kg cp, day 49) was 1.14, the “Median Relative Tumor Volume” value ([2]; 300 mg/kg cp, day 53) was 1.15 and the “Median Relative Tumor Volume” value ([2]; 300 mg/kg cp, day 59) was 1.14. For the same molecule, the “T/C RTV d 49” value ([2]; Cp 100 mg/kg) was 87%, the “T/C RTV d 59” value ([2]; Cp 100 mg/kg) was 81% and the “WBC d 46” value ([2]; Cp 100 mg/kg) was 10.3 10^6/mL. The “T/C RTV d 49” value ([2]; Cp 200 mg/kg) was 63%, the “T/C RTV d 59” value ([2]; Cp 200 mg/kg) was 50% and the “WBC d 46” value ([2]; Cp 200 mg/kg) was 5.5 10^6/mL. The “Last 2 readings indicate progression” value ([2]; Cp 300 mg/kg) was 12%, the “Last 2 readings indicate regression” value ([2]; Cp 300 mg/kg) was 12% and the “Last 2 readings stayed the same” value ([2]; Cp 300 mg/kg) was 0%. For the same molecule, the “Last reading indicates progression” value ([2]; Cp 300 mg/kg) was 25%, the “Last reading indicates regression” value ([2]; Cp 300 mg/kg) was 25% and the “T/C RTV d 49” value ([2]; Cp 300 mg/kg) was 65%. For the same molecule, the “T/C RTV d 59” value ([2]; Cp 300 mg/kg) was 50%, the “WBC d 46” value ([2]; Cp 300 mg/kg) was 5.6 10^6/mL and the “Died of toxic effects” value ([2]; Cp 300 mg/kg) was 25%. The “Died of toxic effects” value ([2]; Cp 300 mg/kg, listed as Cp) was 25%, the “Percent of Animals with Greater than 10 Metastases” value (B16 melanoma; Cp 200 mg/kg) was 50% and the “animals with 0-10 Metastases on Day 42” value (B16 melanoma; Cp 200 mg/kg) was 4. The “animals with 11-20 Metastases on Day 42” value (B16 melanoma; Cp 200 mg/kg) was 3, the “animals with 21-30 Metastases on Day 42” value (B16 melanoma; Cp 200 mg/kg) was 0 and the “animals with over 30 Metastases (full of metastases) on Day 42” value (B16 melanoma; Cp 200 mg/kg) was 1. For the same molecule, the “Primary Tumor Size (Median RTV)” value (B16 melanoma; cp 200 mg/kg alone, day 0) was 1, the “Primary Tumor Size (Median RTV)” value (B16 melanoma; cp 200 mg/kg alone, day 4) was 1.0 and the “Primary Tumor Size (Median RTV)” value (B16 melanoma; cp 200 mg/kg alone, day 7) was 2.4. For the same molecule, the “Primary Tumor Size (Median RTV)” value (B16 melanoma; cp 200 mg/kg alone, day 10) was 3.5, the “Primary Tumor Size (Median RTV)” value (B16 melanoma; cp 200 mg/kg alone, day 14) was 12.9 and the “Primary Tumor Size (Median RTV)” value (B16 melanoma; cp 200 mg/kg alone, day 17) was 32.6. For the same molecule, the “T/C ratio for medium tumor volume” value (B16 melanoma; cp 200 mg/kg alone, day 17) was 82.3%, the “Statistically Significant Effect on Reducing Tumor Volume” value (B16 melanoma; DAY 7) was “No” and the “Statistically Significant Effect on Reducing Tumor Volume” value (B16 melanoma; DAY 10) was “Yes”. For the same molecule, the “Statistically Significant Effect on Reducing Tumor Volume” value (B16 melanoma; DAY 14) was “Yes” and the “Statistically Significant Effect on Reducing Tumor Volume” value (B16 melanoma; DAY 17) was “No”.

In the case of `N[C@@H](Cc1ccc(N(CCCl)CCCl)cc1)C(=O)O` [mp, melphalan], the “Tumor Size” value (MOPC-315 myeloma [3]; day 13) was 20.4 mm, the “Tumor Size” value (MOPC-315 myeloma [3]; day 16) was 19.2 mm and the “Tumor Size” value (MOPC-315 myeloma [3]; day 20) was 17.0 mm. The “Tumor Size” value (MOPC-315 myeloma [3]; day 23) was 10.2 mm, the “Tumor Size” value (MOPC-315 myeloma [3]; day 27) was 0 mm and the “Animals Surviving” value (MOPC-315 myeloma [3]; day 10) was 10. For the same molecule, the “Animals Surviving” value (MOPC-315 myeloma [3]; day 11) was 10, the “Animals Surviving” value (MOPC-315 myeloma [3]; day 12) was 10 and the “Animals Surviving” value (MOPC-315 myeloma [3]; day 13) was 10. The “Animals Surviving” value (MOPC-315 myeloma [3]; day 14) was 10, the “Animals Surviving” value (MOPC-315 myeloma [3]; day 15) was 10 and the “Animals Surviving” value (MOPC-315 myeloma [3]; day 16) was 10. For the same molecule, the “Animals Surviving” value (MOPC-315 myeloma [3]; day 17) was 10, the “Animals Surviving” value (MOPC-315 myeloma [3]; day 18) was 10 and the “Animals Surviving” value (MOPC-315 myeloma [3]; day 19) was 10. The “Animals Surviving” value (MOPC-315 myeloma [3]; day 20) was 9, the “Animals Surviving” value (MOPC-315 myeloma [3]; day 21) was 9 and the “Animals Surviving” value (MOPC-315 myeloma [3]; day 22) was 9. The “Animals Surviving” value (MOPC-315 myeloma [3]; day 23) was 8, the “Animals Surviving” value (MOPC-315 myeloma [3]; day 25) was 8 and the “Animals Surviving” value (MOPC-315 myeloma [3]; day 26) was 8. For the same molecule, the “Animals Surviving” value (MOPC-315 myeloma [3]; day 28) was 7, the “Animals Surviving” value (MOPC-315 myeloma [3]; day 29) was 7 and the “Animals Surviving” value (MOPC-315 myeloma [3]; day 31) was 7. For the same molecule, the “animals in ten cured” value (MOPC-315 myeloma [4]; mp 1.25 mg/kg alone) was “one”, the “cure occurred, days after treatment began” value (MOPC-315 myeloma [4]; mp 1.25 mg/kg alone) was 19 days and the “Animals Surviving” value (MOPC-315 myeloma [4]; day 10) was 10. The “Animals Surviving” value (MOPC-315 myeloma [4]; day 11) was 8, the “Animals Surviving” value (MOPC-315 myeloma [4]; day 12) was 5 and the “Animals Surviving” value (MOPC-315 myeloma [4]; day 13) was 4. For the same molecule, the “Animals Surviving” value (MOPC-315 myeloma [4]; day 14) was 3, the “Animals Surviving” value (MOPC-315 myeloma [4]; day 15) was 3 and the “Animals Surviving” value (MOPC-315 myeloma [4]; day 16) was 3. The “Animals Surviving” value (MOPC-315 myeloma [4]; day 17) was 3, the “Animals Surviving” value (MOPC-315 myeloma [4]; day 18) was 3 and the “Animals Surviving” value (MOPC-315 myeloma [4]; day 19) was 3. The “Animals Surviving” value (MOPC-315 myeloma [4]; day 20) was 3, the “Animals Surviving” value (MOPC-315 myeloma [4]; day 21) was 3 and the “Animals Surviving” value (MOPC-315 myeloma [4]; day 22) was 3. For the same molecule, the “Animals Surviving” value (MOPC-315 myeloma [4]; day 23) was 3, the “Animals Surviving” value (MOPC-315 myeloma [4]; day 25) was 3 and the “Animals Surviving” value (MOPC-315 myeloma [4]; day 26) was 3. The “Animals Surviving” value (MOPC-315 myeloma [4]; day 27) was 3, the “Animals Surviving” value (MOPC-315 myeloma [4]; day 29) was 3 and the “Animals Surviving” value (MOPC-315 myeloma [4]; day 31) was 1. The “Mean Tumor Size” value (MOPC-315 myeloma [4]; day 10) was 22.5 mm, the “Mean Tumor Size” value (MOPC-315 myeloma [4]; day 14) was 19 mm and the “Mean Tumor Size” value (MOPC-315 myeloma [4]; day 17) was 17 mm. For the same molecule, the “Mean Tumor Size” value (MOPC-315 myeloma [4]; day 21) was 22 mm, the “Mean Tumor Size” value (MOPC-315 myeloma [4]; day 29) was 28 mm and the “Animals Surviving” value (MOPC-315 myeloma [5]; test day 10) was 20. The “Animals Surviving” value (MOPC-315 myeloma [5]; test day 11) was 20, the “Animals Surviving” value (MOPC-315 myeloma [5]; test day 12) was 20 and the “Animals Surviving” value (MOPC-315 myeloma [5]; test day 13) was 20. For the same molecule, the “Animals Surviving” value (MOPC-315 myeloma [5]; test day 14) was 20, the “Animals Surviving” value (MOPC-315 myeloma [5]; test day 15) was 20 and the “Animals Surviving” value (MOPC-315 myeloma [5]; test day 16) was 19. The “Animals Surviving” value (MOPC-315 myeloma [5]; test day 17) was 19, the “Animals Surviving” value (MOPC-315 myeloma [5]; test day 18) was 19 and the “Animals Surviving” value (MOPC-315 myeloma [5]; test day 19) was 19. For the same molecule, the “Animals Surviving” value (MOPC-315 myeloma [5]; test day 20) was 19, the “Animals Surviving” value (MOPC-315 myeloma [5]; test day 21) was 15 and the “Animals Surviving” value (MOPC-315 myeloma [5]; test day 22) was 9. For the same molecule, the “Animals Surviving” value (MOPC-315 myeloma [5]; test day 23) was 9, the “Animals Surviving” value (MOPC-315 myeloma [5]; test day 25) was 7 and the “Animals Surviving” value (MOPC-315 myeloma [5]; test day 26) was 4. The “Animals Surviving” value (MOPC-315 myeloma [5]; test day 27) was 3, the “Animals Surviving” value (MOPC-315 myeloma [5]; test day 29) was 2 and the “Animals Surviving” value (MOPC-315 myeloma [5]; test day 31) was 2. For the same molecule, the “day 21 tumor size” value (MOPC-315 myeloma [5]; mp on day 10, BT none) was 25.8 mm, the “day half are dead” value (MOPC-315 myeloma [5]; mp on day 10, BT none) was 22 and the “cures day 21” value (MOPC-315 myeloma [5]; [6]) was 2. The “deaths day 21” value (MOPC-315 myeloma [5]; [6]) was 5, the “cures day 21” value (MOPC-315 myeloma [5]; mp on day 10, BT none, 20 in group, listed as melphalan) was 2/20 and the “day 21 tumor size” value (MOPC-315 myeloma [5]; mp on day 10, BT none, listed as melphalan) was 26 mm.
